Laboratory results: patent publication US10233191B2, “Fused piperidine amides as modulators of ion channels” (Vertex Pharmaceuticals Incorporated, priority 2013, dated 2019)

Target: T1, NaV 1.7 (Homo sapiens, UniProt Q15858)
T1 construct: expressed in transfected cells; host or cells: HEK cells
Test: E-VIPR optical membrane potential assay with electrical stimulation
Assay type: cell-based
Conditions: active against one or more sodium channels; assay/subtype not specified in Table 4; read-out: IC50 Binned Activity Data
Text: E-VIPR Optical Membrane Potential Assay Method with Electrical Stimulation
Sodium channels are voltage-dependent proteins that can be activated by inducing membrane voltage changes by applying electric fields. The electrical stimulation instrument and methods of use are described in Ion Channel Assay Methods PCT/US01/21652, herein incorporated by reference and are referred to as E-VIPR. The instrument comprises a microtiter plate handler, an optical system for exciting the coumarin dye while simultaneously recording the coumarin and oxonol emissions, a waveform generator, a current- or voltage-controlled amplifier, and a device for inserting electrodes in well. Under integrated computer control, this instrument passes user-programmed electrical stimulus protocols to cells within the wells of the microtiter plate.
24 hours before the assay on E-VIPR, HEK cells expressing human NaV subtype, like NaV 1.7, are seeded in 384-well poly-lysine coated plates at 15,000-20,000 cells per well. Other subtypes are performed in an analogous mode in a cell line expressing the NaV of interest. HEK cells are grown in media (exact composition is specific to each cell type and NaV subtype) supplemented with 10% FBS (Fetal Bovine Serum, qualified; GibcoBRL #16140-071) and 1% Pen-Strep (Penicillin-Streptomycin; GibcoBRL #15140-122). Cells are grown in vented cap flasks, in 90% humidity and 10% CO2, to 100% confluence. They are usually split by trypsinization 1:10 or 1:20, depending on scheduling needs, and grown for 2-3 days before the next split.
• 100 mg/mL Pluronic F-127 (Sigma #P2443), in dry DMSO • Compound Plates: 384-well round bottom plate, e.g. Corning 384-well Polypropylene Round Bottom #3656 • Cell Plates: 384-well tissue culture treated plate, e.g. Greiner #781091-1B • 10 mM DiSBAC6(3) (Aurora #00-100-010) in dry DMSO • 10 mM CC2-DMPE (Aurora #00-100-008) in dry DMSO • 200 mM ABSC1 in H2O
Bath1 buffer. Glucose 10 mM (1.8 g/L), Magnesium Chloride (Anhydrous), 1 mM (0.095 g/L), Calcium Chloride, 2 mM (0.222 g/L), HEPES 10 mM (2.38 g/L), Potassium Chloride, 4.5 mM (0.335 g/L), Sodium Chloride 160 mM (9.35 g/L).
Hexyl Dye Solution: Bath1 Buffer+0.5% β-cyclodextrin (make this prior to use, Sigma #C4767), 8 μM CC2-DMPE+2.5 μM DiSBAC6(3). To make the solution Add volume of 10% Pluronic F127 stock equal to volumes of CC2-DMPE+DiSBAC6(3). The order of preparation is first mix Pluronic and CC2-DMPE, then add DiSBAC6(3) while vortexing, then add Bath1+β-Cyclodextrin.
1) Pre-spot compounds (in neat DMSO) into compound plates. Vehicle control (neat DMSO), the positive control (20 mM DMSO stock tetracaine, 125 μM final in assay) and test compounds are added to each well at 160× desired final concentration in neat DMSO. Final compound plate volume will be 80 μL (80-fold intermediate dilution from 1 μL DMSO spot; 160-fold final dilution after transfer to cell plate). Final DMSO concentration for all wells in assay is 0.625%.
2) Prepare Hexyl Dye Solution.
3) Prepare cell plates. On the day of the assay, medium is aspirated and cells are washed three times with 100 μL of Bath1 Solution, maintaining 25 μL residual volume in each well.
4) Dispense 25 μL per well of Hexyl Dye Solution into cell plates. Incubate for 20-35 minutes at room temp or ambient conditions.
5) Dispense 80 μL per well of Bath1 into compound plates. Acid Yellow-17 (1 mM) is added and Potassium Chloride can be altered from 4.5 to 20 mM depending on the NaV subtype and assay sensitivity.
6) Wash cell plates three times with 100 μL per well of Bath1, leaving 25 μL of residual volume. Then transfer 25 uL per well from Compound Plates to Cell Plates. Incubate for 20-35 minutes at room temp/ambient condition
7) Read Plate on E-VIPR. Use the current-controlled amplifier to deliver stimulation wave pulses for typically 9 seconds and a scan rate of 400 Hz. A pre-stimulus recording is performed for 0.5 seconds to obtain the un-stimulated intensities baseline. […]

T1 sequence (Q15858 whole entry): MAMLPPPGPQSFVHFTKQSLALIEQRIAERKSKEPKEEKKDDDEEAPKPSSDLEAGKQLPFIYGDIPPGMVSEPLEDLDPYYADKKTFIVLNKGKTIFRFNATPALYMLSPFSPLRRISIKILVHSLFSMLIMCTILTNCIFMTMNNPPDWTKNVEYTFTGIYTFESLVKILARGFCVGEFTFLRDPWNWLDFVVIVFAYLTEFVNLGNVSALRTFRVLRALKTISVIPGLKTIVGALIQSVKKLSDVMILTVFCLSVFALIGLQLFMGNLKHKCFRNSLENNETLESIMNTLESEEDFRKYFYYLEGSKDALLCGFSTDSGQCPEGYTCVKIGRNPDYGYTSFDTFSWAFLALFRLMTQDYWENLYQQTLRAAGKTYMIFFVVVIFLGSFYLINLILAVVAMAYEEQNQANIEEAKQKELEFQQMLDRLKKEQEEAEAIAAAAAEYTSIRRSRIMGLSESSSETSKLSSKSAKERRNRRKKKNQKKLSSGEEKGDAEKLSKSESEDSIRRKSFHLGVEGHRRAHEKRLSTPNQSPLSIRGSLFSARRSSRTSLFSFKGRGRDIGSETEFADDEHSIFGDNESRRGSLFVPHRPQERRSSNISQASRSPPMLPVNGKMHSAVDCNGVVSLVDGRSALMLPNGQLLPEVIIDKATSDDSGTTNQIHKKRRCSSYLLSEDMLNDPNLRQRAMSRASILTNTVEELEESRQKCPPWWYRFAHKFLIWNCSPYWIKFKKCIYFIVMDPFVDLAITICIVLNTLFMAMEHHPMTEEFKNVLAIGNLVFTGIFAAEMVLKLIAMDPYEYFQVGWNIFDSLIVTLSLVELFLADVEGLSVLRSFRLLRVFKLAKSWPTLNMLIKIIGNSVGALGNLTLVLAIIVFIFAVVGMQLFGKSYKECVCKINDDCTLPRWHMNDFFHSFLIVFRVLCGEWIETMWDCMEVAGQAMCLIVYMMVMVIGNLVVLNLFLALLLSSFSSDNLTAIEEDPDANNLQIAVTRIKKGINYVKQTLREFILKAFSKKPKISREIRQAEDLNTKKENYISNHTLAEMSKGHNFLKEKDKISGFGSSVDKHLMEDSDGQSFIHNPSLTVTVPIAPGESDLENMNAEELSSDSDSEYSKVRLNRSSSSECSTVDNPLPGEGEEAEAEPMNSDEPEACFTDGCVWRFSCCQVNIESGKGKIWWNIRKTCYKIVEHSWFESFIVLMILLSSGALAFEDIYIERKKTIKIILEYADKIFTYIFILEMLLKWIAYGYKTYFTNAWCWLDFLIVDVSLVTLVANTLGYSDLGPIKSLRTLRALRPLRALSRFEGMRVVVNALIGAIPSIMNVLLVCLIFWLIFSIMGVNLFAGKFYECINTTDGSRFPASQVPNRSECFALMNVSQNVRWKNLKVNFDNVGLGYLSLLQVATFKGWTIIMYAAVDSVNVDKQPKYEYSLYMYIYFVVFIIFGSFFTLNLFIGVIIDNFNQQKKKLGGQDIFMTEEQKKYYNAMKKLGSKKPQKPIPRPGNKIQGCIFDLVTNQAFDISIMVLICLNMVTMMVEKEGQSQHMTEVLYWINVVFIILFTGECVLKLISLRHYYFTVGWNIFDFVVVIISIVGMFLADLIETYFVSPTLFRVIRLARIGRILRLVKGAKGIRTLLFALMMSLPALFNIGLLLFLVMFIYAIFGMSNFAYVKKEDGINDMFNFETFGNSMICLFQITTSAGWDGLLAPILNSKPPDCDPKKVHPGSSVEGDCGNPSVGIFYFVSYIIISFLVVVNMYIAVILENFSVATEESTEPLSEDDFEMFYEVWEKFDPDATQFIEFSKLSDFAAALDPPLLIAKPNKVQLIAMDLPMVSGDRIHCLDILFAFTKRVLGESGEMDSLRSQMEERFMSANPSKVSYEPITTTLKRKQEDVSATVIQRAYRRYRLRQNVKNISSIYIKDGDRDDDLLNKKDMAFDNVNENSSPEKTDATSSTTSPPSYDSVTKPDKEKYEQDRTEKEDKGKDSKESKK

`Cc1cc(C(=O)N2CC[C@@]3(c4ccc(F)cc4)OCOC3C2)ccc1OCC(C)(C)O` (stereo partly drawn) [Compound 58] gave an IC50 of no more than 2000 nM.
`O=C(c1ccc(OCCOC(F)(F)F)c(F)c1)N1CC[C@@]2(c3nccs3)OCOC2C1` (stereo partly drawn) [Compound 59] was tested, and the IC50 was no more than 2000 nM.
`COc1nc(C(=O)N2CCC3(c4ccccc4)CC3C2)ccc1OCC(C)(C)O` (stereo not drawn) [Compound 60] was tested, and the IC50 was no more than 2000 nM.
`COc1cc(C(=O)N2CC[C@]3(c4ccccn4)OCOC3C2)ccc1OC(C)CC(F)(F)F` (stereo partly drawn) [Compound 61] was tested, and the IC50 was no more than 2000 nM.
`O=C(c1ccc(OCCOC(F)(F)F)c(F)c1)N1CC[C@]2(c3nccs3)OCOC2C1` (stereo partly drawn) [Compound 62] gave an IC50 of 2000 to 5000 nM.
`Cc1cc(C(=O)N2CC[C@@]3(c4nccs4)OCOC3C2)ccc1OCC(F)(F)F` (stereo partly drawn) [Compound 63] gave an IC50 of no more than 2000 nM.
`COc1cc(C(=O)N2CC[C@@]3(c4ccccn4)COC[C@H]3C2)ccc1OCCOC(F)(F)F` [Compound 64] showed an IC50 of no more than 2000 nM.
`COc1cc(C(=O)N2CCC3(c4ccccc4)CC3C2)ccc1OCC1CCCO1` (stereo not drawn) [Compound 65] was tested, and the IC50 was no more than 2000 nM.
`COc1cc(C(=O)N2CCC3(c4ccccn4)OCCC3C2)ccc1OCCOC(F)(F)F` (stereo not drawn) [Compound 66] showed an IC50 of no more than 2000 nM.
Work on `Cc1nc(C(=O)N2CC[C@]3(c4ncccc4Cl)OCOC3C2)ccc1OC(C)C` (stereo partly drawn) [Compound 67] yielded an IC50 of no more than 2000 nM.
`COc1cc(C(=O)N2CCC3(c4ccccn4)OCOC3C2)ccc1OCCOC(F)(F)F` (stereo not drawn) [Compound 68] showed an IC50 of no more than 2000 nM.
With `CC(C)(C)OCCOc1ccc(C(=O)N2CC[C@]3(c4ccccn4)OCOC3C2)cc1Cl` (stereo partly drawn) [Compound 69] the IC50 was no more than 2000 nM.
Compound `Cc1cc(C(=O)N2CC[C@]3(c4nccs4)OCOC3C2)ccc1OCC(F)(F)F` (stereo partly drawn) [Compound 70] has an IC50 of no more than 2000 nM.
`COc1cc(C(=O)N2CC[C@]3(c4ccccc4)OCOC3C2)ccc1OCC(C)(C)F` (stereo partly drawn) [Compound 71] showed an IC50 of no more than 2000 nM.
`COc1cc(C(=O)N2CC[C@]3(c4ccccn4)OCO[C@@H]3C2)ccc1OC(C)C(F)(F)F` (stereo partly drawn) [Compound 72] gave an IC50 of no more than 2000 nM.
In the case of `Cc1cc(C(=O)N2CC[C@@]3(c4ccccc4)OCOC3C2)ccc1OCC(C)(C)O` (stereo partly drawn) [Compound 73], the IC50 is reported as no more than 2000 nM.
`Cc1nc([C@]23CCN(C(=O)c4ccc(OCC(C)(C)F)c(C)c4)CC2OCO3)cs1` (stereo partly drawn) [Compound 74] gave an IC50 of no more than 2000 nM.
For `Cc1cc(C(=O)N2CC[C@]3(c4ccccc4)OCOC3C2)ccc1OCC(C)(C)O` (stereo partly drawn) [Compound 75], the IC50 was no more than 2000 nM.
For `O=C(c1cccc2cccnc12)N1CC[C@]2(c3ccccc3)OCOC2C1` (stereo partly drawn) [Compound 76], the IC50 was no more than 2000 nM.
Work on `Cc1cc(C(=O)N2CC[C@]3(c4ccccc4)OCOC3C2)ccc1OC(C)C` (stereo partly drawn) [Compound 77] yielded an IC50 of no more than 2000 nM.
`COc1cc(C(=O)N2CC[C@@]3(c4csc(C)n4)OCOC3C2)ccc1OCCOC(F)(F)F` (stereo partly drawn) [Compound 78] was tested, and the IC50 was no more than 2000 nM.
In the case of `Cc1cc(C(=O)N2CCC3(c4ccccc4)CC3C2)ccc1OC(C)C` (stereo not drawn) [Compound 79], the IC50 is reported as no more than 2000 nM.
For `Cc1cc(C(=O)N2CC[C@]3(c4cccc(OCC(C)C)n4)OCOC3C2)ccc1OCCOC(F)(F)F` (stereo partly drawn) [Compound 80], the IC50 was no more than 2000 nM.
`Cc1cc(C(=O)N2CC[C@@]3(c4ccccc4)OCOC3C2)ccc1OC(C)C` (stereo partly drawn) [Compound 81] was tested, and the IC50 was 2000 to 5000 nM.
With `Cc1cc(C(=O)N2CC[C@@]3(c4nccs4)OCOC3C2)ccc1OCC(C)(C)F` (stereo partly drawn) [Compound 82] the IC50 was no more than 2000 nM.
`COc1cc(C(=O)N2CCC3(c4ccccc4)CC3C2)ccc1COCC(F)(F)F` (stereo not drawn) [Compound 83] showed an IC50 of no more than 2000 nM.
In the case of `O=C(c1ccc(OCC2CC2(F)F)c(C(F)(F)F)c1)N1CC[C@]2(c3ccccn3)OCOC2C1` (stereo partly drawn) [Compound 84], the IC50 is reported as no more than 2000 nM.
Work on `COc1cc(C(=O)N2CC[C@]3(c4nccs4)OCOC3C2)ccc1OCCOC(F)(F)F` (stereo partly drawn) [Compound 85] yielded an IC50 of no more than 2000 nM.
`COc1cc(C(=O)N2CC[C@@]3(c4nccs4)OCOC3C2)ccc1OCCOC(F)(F)F` (stereo partly drawn) [Compound 86] gave an IC50 of no more than 2000 nM.
In the case of `CC(C)(C)OCCOc1ccc(C(=O)N2CC[C@]3(c4ncccc4OCCOC(C)(C)C)OCOC3C2)cc1Cl` (stereo partly drawn) [Compound 87], the IC50 is reported as no more than 2000 nM.
For `COc1nc(C(=O)N2CC[C@]3(c4csc(C)n4)OCOC3C2)ccc1OCCOC(F)(F)F` (stereo partly drawn) [Compound 88], the IC50 was no more than 2000 nM.
For `COc1cccnc1[C@]12CCN(C(=O)c3ccc(OCCOC(F)(F)F)c(C)c3)CC1OCO2` (stereo partly drawn) [Compound 89], the IC50 was no more than 2000 nM.
`COc1cc(C(=O)N2CC[C@]3(c4ccccn4)OCOC3C2)ccc1OCC1CC(F)(F)C1` (stereo partly drawn) [Compound 90] was tested, and the IC50 was no more than 2000 nM.
With `COc1cc(C(=O)N2CC[C@]3(c4ccccc4)OCOC3C2)ccc1C(C)(C)CO` (stereo partly drawn) [Compound 91] the IC50 was no more than 2000 nM.
In the case of `COc1cc(C(=O)N2CC[C@]3(c4ccccn4)OCOC3C2)ccc1OCCOC(F)(F)F` (stereo partly drawn) [Compound 92], the IC50 is reported as no more than 2000 nM.
Compound `COc1cc(C(=O)N2CC[C@]3(c4ncccc4F)OCOC3C2)ccc1OCCOC(F)(F)F` (stereo partly drawn) [Compound 93] has an IC50 of no more than 2000 nM.
`COc1cccnc1[C@]12CCN(C(=O)c3ccc(OCCOC(F)(F)F)c(Cl)c3)CC1OCO2` (stereo partly drawn) [Compound 94] showed an IC50 of no more than 2000 nM.
`Cc1cc(C(=O)N2CC[C@]3(c4ccccn4)OCOC3C2)ccc1OCC(C)(C)F` (stereo partly drawn) [Compound 95] was tested, and the IC50 was no more than 2000 nM.
Compound `COc1nc(C(=O)N2CC[C@]3(c4ncccc4F)OCOC3C2)ccc1OCCOC(F)(F)F` (stereo partly drawn) [Compound 96] has an IC50 of no more than 2000 nM.
With `Cc1cc(C(=O)N2CC[C@]3(c4nccs4)OCOC3C2)ccc1OCC(C)(C)F` (stereo partly drawn) [Compound 97] the IC50 was no more than 2000 nM.
In the case of `COc1cc(OC(C)C)ccc1C(=O)N1CCC2(c3ccccc3)CC2C1` (stereo not drawn) [Compound 98], the IC50 is reported as no more than 2000 nM.
With `COc1cc(C(=O)N2CC[C@]3(c4ccc(F)cc4)OCOC3C2)ccc1OCCOC(F)(F)F` (stereo partly drawn) [Compound 99] the IC50 was no more than 2000 nM.
`Cc1cc(C(=O)N2CC[C@]3(c4ncccc4F)OCOC3C2)ccc1OCC(C)(C)F` (stereo partly drawn) [Compound 100] showed an IC50 of no more than 2000 nM.
`COc1cc(C(=O)N2CC[C@]3(c4ccccn4)CC3C2)ccc1OCCOC(F)(F)F` (stereo partly drawn) [Compound 101] gave an IC50 of no more than 2000 nM.
Compound `COc1cc(C(=O)N2CC[C@]3(c4ccccc4)OCOC3C2)ccc1OCCC(F)(F)F` (stereo partly drawn) [Compound 102] has an IC50 of no more than 2000 nM.
In the case of `CCOc1nc(C(=O)N2CC[C@]3(c4csc(C)n4)OCOC3C2)ccc1OCCOC(F)(F)F` (stereo partly drawn) [Compound 103], the IC50 is reported as no more than 2000 nM.
Work on `COc1cc(C(=O)N2CC[C@]3(c4ccccc4)CC3C2)ccc1OCC(C)(C)O` (stereo partly drawn) [Compound 104] yielded an IC50 of no more than 2000 nM.
For `COc1cc(C(=O)N2CC[C@]3(c4ccccn4)OCOC3C2)cc(Cl)c1OCCOC(F)(F)F` (stereo partly drawn) [Compound 105], the IC50 was no more than 2000 nM.
Compound `CC(F)(F)COc1ccc(C(=O)N2CC[C@]3(c4ccccn4)OCOC3C2)cc1Cl` (stereo partly drawn) [Compound 106] has an IC50 of no more than 2000 nM.
Work on `COc1nc(C(=O)N2CC[C@]3(c4ccccn4)OCOC3C2)ccc1OCCOC(F)(F)F` (stereo partly drawn) [Compound 107] yielded an IC50 of no more than 2000 nM.
`O=C(c1ccc(OCCOCC(F)(F)F)c(Cl)c1)N1CC[C@]2(c3ccccn3)OCOC2C1` (stereo partly drawn) [Compound 108] was tested, and the IC50 was no more than 2000 nM.
For `Cc1cc(C(=O)N2CC[C@@]3(c4ccc(F)cc4)OCOC3C2)ccc1OCC(C)(C)F` (stereo partly drawn) [Compound 109], the IC50 was no more than 2000 nM.
Work on `CC(C)(F)COc1ccc(C(=O)N2CC[C@]3(c4ccccn4)OCOC3C2)cc1Cl` (stereo partly drawn) [Compound 110] yielded an IC50 of no more than 2000 nM.
`COc1nc(C(=O)N2CC[C@]3(c4nccs4)OCOC3C2)ccc1OCCOC(F)(F)F` (stereo partly drawn) [Compound 111] was tested, and the IC50 was no more than 2000 nM.
